Article PMC9413440, “An Iterative Approach Guides Discovery of the FabI Inhibitor Fabimycin, a Late-Stage Antibiotic Candidate with In Vivo Efficacy against Drug-Resistant Gram-Negative Infections” (ACS Central Science, 2022)
In brackets after ≈: the same amount, converted by molar mass. Like-named read-outs stand apart in the source and are kept apart here.

Assays:
[1] = system: A. baumannii clinical isolates (n=100); experiment: MIC50/MIC90, clinical isolate panel; assay type: cell-based; conditions: Acinetobacter baumannii
[2] = assay type: in vitro ADME
Protocol: (§1) Forward 5’-GGG-GCC-AGC-GTT-TCT-TTT-TC-3‘ Parker, 20203
(§2) Reverse 5’-AAA-CAT-GGA-GAC-GGT-GCT-GG
(§3) Forward 5’-GTG-AGA-TCG-GCA-TGA-CAC-AA-3’ Lin, 20179
(§4) Reverse 5’-CTG-AAG-TCC-GCT-ACC-GTT-AT-3’
(§5) Compound stability in mammalian plasma
(§6) Candidate drugs were incubated with plasma and parent drug levels were monitored at various time points (generally t=0, 10, 20, 30, and 60 minutes) to determine the drug’s half-life in the presence of the chosen system. Each drug is tested in duplicate. Compounds were diluted from 10 mM DMSO stocks to 1 µM in a 100 mM pH 7.4 phosphate buffer and incubated at 37 °C with 0.5 mg/mL of human, rat, or mouse plasma (BioreclamationIVT, Baltimore, MD). Time points were collected at 0 min (after addition of drug), 15 min, 30 min, 60 min, and 120 min following quenching with an equal volume of acetonitrile. The supernatant was collected after centrifugation, and the sample analyzed by LC-MS where the percentage of compound remaining is plotted vs time to determine the drug’s half-life.
(§7) Compound plasma protein binding
(§8) Candidate drugs were incubated with plasma and parent drug levels are monitored after 4 hours to determine the drug’s free concentration in the presence of the plasma proteins. The standard assay involves equilibrium dialysis, in which compound is allowed to equilibrate between a protein-containing compartment from a protein-free compartment. Each

[3] = system: panel of 10 clinical isolates (two E. coli, four K. pneumoniae, four A. baumannii); experiment: MIC, Gram-negative clinical isolate challenge panel; assay type: cell-based; conditions: Gram-negative clinical isolates; fabimycin relative to (R)-7
[4] = system: E. coli MG1655 FabI mutants; experiment: MIC of fabimycin-resistant mutants; assay type: cell-based; conditions: Escherichia coli
Protocol: (§9) II. Materials and Methods for Biological Experiments
(§10) S. aureus ATCC 29213 and E. coli MG1655 were obtained from the American Type Culture Collection (ATCC). E. coli BW25113 and E. coli JW5503 were obtained from the Keio Collection. AR-bank strains were obtained from the Centers for Disease Control and Prevention and FDA Antibiotic Resistance Isolate Bank.
(§11) Antimicrobial susceptibility tests
(§12) Susceptibility testing was performed in biological triplicate, unless noted otherwise, using the micro-dilution broth method as outlined by the Clinical and Laboratory Standards Institute. Bacteria were cultured with cation-adjusted Mueller Hinton broth (Sigma Aldrich, catalogue number: 90922). […]
(§13) Error bars represent the standard error of the mean of three biological replicates. All compounds evaluated in biological assays were ≥95% pure.
(§14) Selection of resistant mutants
(§15) Resistant mutants were generated using the large inoculum method. Briefly, S. aureus 29213, E. coli MG1655, and A. baumannii 19606 (~1 x 1010 CFUs) was plated on 100-mm plates (E. coli and A. baumannii) or 150-mm plates (S. aureus) of MH agar containing either 128, 64, or 32 µg/mL fabimycin (for gram-negatives) or 0.125, 0.062, and 0.031 µg/mL fabimycin (for S. aureus). Plates were incubated at 37 °C for 48 h and counted for the presence of colony forming units.
(§16) Glycerol stocks of selected colonies were made, and resistant colonies confirmed by growing on agar plates containing the same concentration of fabimycin that they were generated at.
(§17) Sequencing of bacterial fabI
(§18) The FabI gene was amplified by PCR. Fabimycin-resistant colonies were picked and diluted in 100 µL sterile, nuclease-free H2O. PCR reactions were then set up by combining 14 µL H2O, 1 µL 20 µM primer mix, 10 µL template (bacteria solution in H2O), and 25 µL MiFi Mix (Bioline). The reaction was performed on a C1000 Thermal Cycler (Bio-Rad) under the following conditions for 35 cycles: initial denature: 95 °C for 3 min; denature 95 °C for 15 s; anneal: 57 °C for 15 s; extend 72 °C for 30 s; final extend: 72 °C for 3 min. A 10 µL portion of PCR reaction mixture was analyzed by agarose gel electrophoresis to confirm the single 1.4-kilobase pair product. PCR products were purified using a GeneJET PCR Purification Kit (Thermo Fischer Scientific). PCR amplicons were submitted to the Core DNA Sequencing Facility at the University of Illinois at Urbana-Champaign for Sanger sequencing with overlapping internal primers. All primers were obtained from Integrated DNA Technologies.
(§19) Primers for sequencing of fabI gene in select pathogens: […]
(§20) Organism Sequence Reference
as §1, §2, §3, §4, §5, §6, §7, §8

[5] = system: A. baumannii 19606 FabI mutants; experiment: MIC of fabimycin-resistant mutants; assay type: cell-based; conditions: Acinetobacter baumannii
Protocol: as §9, §10, §11, §12, §13, §14, §15, §16, §17, §18, §19, §20, §1, §2, §3, §4, §5, §6, §7, §8

Pseudomonas aeruginosa = experiment: MIC, Pseudomonas aeruginosa strains; assay type: cell-based
Protocol: as §9, §10, §11, §12, §13

A. baumannii AR-0088 = experiment: MIC against infective strain of PK/thigh models; assay type: cell-based; conditions: Acinetobacter baumannii, AR0088; drug-resistant A. baumannii, infective strain of the PK study (AR-0088)
Protocol: as §9, §10, §11, §12, §13

[6] = A. baumannii (n=100) clinical isolates

## Cc1c(CN(C)C(=O)/C=C/c2cnc3c(c2)CC[C@H](N)C(=O)N3)oc2ccccc12 [fabimycin]
[1]; [6]
  MIC50: 4 µg/mL (≈ 9.89 µM)
  MIC90: 8 µg/mL (≈ 19.8 µM)
[1]; the 1 pan-resistant strain of the 100 A. baumannii clinical isolates
  MIC: 1 µg/mL (≈ 2.47 µM)
[2]; human
  stability in plasma: excellent stability
[2]; mouse
  stability in plasma: considerable instability
[2]; rat
  stability in plasma: excellent stability
[3]
  difference in MIC activity between the two enantiomers: 64–128 fold
[4]; MG1655, FabI mutation G148S, plated at 16x MIC (32 μg/mL), colonies 2/5, read-out: MIC of mutants
  MIC: ≥ 128 µg/mL
[4]; MG1655, read-out: MIC of mutants, FabI mutation G148A, plated at 8x MIC (16 μg/mL), colonies 3/5
  MIC: 32 to 64 µg/mL
[4]; MG1655, read-out: MIC of mutants, FabI mutation G148A, plated at 16x MIC (32 μg/mL), colonies 3/5
  MIC: 64 µg/mL
[4]; MG1655, read-out: MIC of mutants, FabI mutation G148S, plated at 8x MIC (16 μg/mL), colonies 1/5
  MIC: 128 µg/mL
[4]; MG1655, read-out: MIC of mutants, FabI mutation M159T, plated at 8x MIC (16 μg/mL), colonies 1/5
  MIC: 32 µg/mL
[5]; FabI mutation A118T, plated at 16x MIC (32 μg/mL), colonies 4/5, read-out: MIC of mutants
  MIC: 64 to 128 µg/mL
[5]; FabI mutation N160K, plated at 16x MIC (32 μg/mL), colonies 1/5, read-out: MIC of mutants
  MIC: 128 µg/mL
[5]; read-out: MIC of mutants, FabI WT, plated at 8x MIC (16 μg/mL), colonies 2/5
  MIC: 8 to 16 µg/mL
[5]; read-out: MIC of mutants, FabI mutation A118T, plated at 32x MIC (64 μg/mL), colonies 4/5
  MIC: 64 µg/mL
[5]; read-out: MIC of mutants, FabI mutation A118V, plated at 8x MIC (16 μg/mL), colonies 1/5
  MIC: 128 µg/mL
[5]; read-out: MIC of mutants, FabI mutation F206L, plated at 8x MIC (16 μg/mL), colonies 1/5
  MIC: 32 µg/mL
[5]; read-out: MIC of mutants, FabI mutation G151S, plated at 32x MIC (64 μg/mL), colonies 1/5
  MIC: 64 µg/mL
[5]; read-out: MIC of mutants, FabI mutation M162T, plated at 8x MIC (16 μg/mL), colonies 1/5
  MIC: 128 µg/mL
Pseudomonas aeruginosa; P. aeruginosa AR-0229
  MIC: >128 µg/mL
Pseudomonas aeruginosa; P. aeruginosa AR-0230
  MIC: >128 µg/mL
Pseudomonas aeruginosa; P. aeruginosa AR-0231
  MIC: >128 µg/mL
Pseudomonas aeruginosa; P. aeruginosa AR-0233
  MIC: >128 µg/mL
Pseudomonas aeruginosa; P. aeruginosa AR-0234
  MIC: >128 µg/mL
Pseudomonas aeruginosa; P. aeruginosa AR-0235
  MIC: >128 µg/mL
Pseudomonas aeruginosa; P. aeruginosa AR-0609
  MIC: >128 µg/mL
Pseudomonas aeruginosa; P. aeruginosa AR-0610
  MIC: >128 µg/mL
Pseudomonas aeruginosa; Pseudomonas aeruginosa, ATCC27853, P. aeruginosa ATCC 27853, read-out: MIC
  MIC: > 128 µg/mL
Pseudomonas aeruginosa; Pseudomonas aeruginosa, P. aeruginosa AR-0232, read-out: MIC
  MIC: > 128 µg/mL
A. baumannii AR-0088
  MIC: 2 µg/mL (≈ 4.94 µM)
